According to article PMC10821286 (Marine Drugs, 2023):
≈ marks a conversion by molar mass, not a printed value. Like-named read-outs stand apart in the source and are kept apart here. Each block holds one compound with its values, some of them ahead of it. Where a SMILES comes first, the peptide text is derived from it. Bridges are numbered along the chain shown (N, C = ends).

Legend:
[1] = tested on: mouse red blood cells; conditions: 128 μg/mL; mouse erythrocytes, 37 °C, 1 h
Method: Erythrocytes from mice of SPF grade were centrifuged at 2000 rpm for 5 min, followed by washes with saline solution three times. […] The mixture was then incubated at 37 °C for 1 h. Subsequently, it was centrifuged at 5000 rpm for 5 min and the supernatant was collected for measurement of the absorbance at OD540 nm. The 0.9% NaCl and 0.1% Triton X-100 were used as blank (A0) and positive (A100) controls, respectively [32]. The percentage of peptide hemolysis is calculated as follows: Hemolysis (%) = [(A − A0)/(A100 − A0)] × 100. Each experiment was performed in triplicate, and data were analyzed by the GraphPad Prism (version 8, USA, the software download from https://www.graphpad-prism.cn/, accessed on 7 June 2023).

[2] = tested on: S. epidermidis ATCC 12228; assay: microbe, parasite or virus in culture; type: cell-based, Staphylococcus epidermidis; conditions: 1 × 10^5 CFU/mL, 37 °C, 12–18 h, triplicate
Method: (§1) Each experiment was performed in triplicate.

[3] = tested on: S. epidermidis G-81; assay: microbe, parasite or virus in culture; type: cell-based, Staphylococcus epidermidis; conditions: 1 × 10^5 CFU/mL, 37 °C, 12–18 h, triplicate
Method: as §1

[4] = tested on: S. epidermidis G-81; assay: Murine subcutaneous abscess model of S. epidermidis infection; type: in vivo, BALB/c mice; conditions: mice, day three post-infection
Method: The sterile saline was used for rapid washing twice.
The six-week-old BALB/c mice were divided randomly into five groups of nine animals: a normal saline control group, an infection group, three drug treatment groups (including AOD treatment in two groups and lincomycin treatment in one group). The hair removal solution was applied to the abdomen of each mouse in every group. One day later, each group, except for the control group, was subcutaneously injected with 0.1 mL of S. epidermidis G-81 at a concentration of 1 × 10^10 CFU/mL. […] In contrast, the infected group received an injection of 10 μL normal saline. The treatment duration was three days, and we continuously observed the weight and volume changes in the abscesses for 15 days. […] […] The results were presented as means ± standard deviation (SD).

[5] = 100 °C, one hour in PBS; read-out MIC against S. epidermidis
Method: (§2) Each experiment was performed in triplicate, and data were analyzed by the GraphPad Prism (version 8, USA, the software download from https://www.graphpad-prism.cn/, accessed on 7 June 2023).

[6] = tested on: trypsin; conditions: trypsin 250 U/mg, pH 8.0, ratio 10:1, 37 °C, 4 h; read-out MIC against S. epidermidis, triplicate
Method: as §2

[7] = tested on: pepsin; conditions: pepsin 3000 U/mg, pH 2.0, ratio 10:1, 37 °C, 4 h; read-out MIC against S. epidermidis, triplicate
Method: as §2

[8] = tested on: S. pseudintermedius A2101; assay: organism not typed; type: cell-based; conditions: microbroth dilution, 1 × 10^5 CFU/mL, 37 °C, 12–18 h, triplicate
Method: as §1

[9] = Ion stability; type: physicochemical; conditions: Zn2+, Mg2+, Ca2+, NH4+, K+, Na+; 37 °C, 4 h (method); read-out MIC against S. epidermidis
Text: The results were presented as means ± standard deviation (SD).

[10] = tested on: S. hyicus NCTC 10350; assay: microbe, parasite or virus in culture; type: cell-based; conditions: 1 × 10^5 CFU/mL, 37 °C, 12–18 h, triplicate
Method: as §1

[11] = tested on: S. aureus ATCC 25923; assay: microbe, parasite or virus in culture; type: cell-based, Staphylococcus aureus; conditions: 1 × 10^5 CFU/mL, 37 °C, 12–18 h, triplicate
Method: as §1

[12] = tested on: S. aureus E48; assay: microbe, parasite or virus in culture; type: cell-based, Staphylococcus aureus; conditions: microbroth dilution, 1 × 10^5 CFU/mL, 37 °C, 12–18 h, triplicate
Method: as §1

[13] = tested on: S. aureus ATCC 43300; assay: microbe, parasite or virus in culture; type: cell-based, Staphylococcus aureus; conditions: 1 × 10^5 CFU/mL, 37 °C, 12–18 h, triplicate
Method: as §1

[14] = tested on: S. epidermidis ATCC 35984; conditions: microbroth dilution, 1 × 10^5 CFU/mL, 37 °C, 12–18 h, triplicate
Method: (§3) The strains to be tested were cultured overnight at 37 °C and then transferred to fresh medium until the logarithmic phase of growth was reached. […] The plate was then incubated at 37 °C for 12–18 h. The minimum concentration of no bacterial growth was recorded as the MIC value. Each experiment was performed in triplicate.

[15] = tested on: S. agalactiae ATCC 13813; conditions: microbroth dilution, 1 × 10^5 CFU/mL, 37 °C, 12–18 h, triplicate
Method: as §3

[16] = tested on: Hacat cells; conditions: 24 h, cck-8
Method: Cell survival rate is calculated as follows: Survival rate (%) = (A/Acontrol) × 100.

[17] = tested on: S. epidermidis G-81; assay: Time-killing curves; type: cell-based, Staphylococcus epidermidis; conditions: S. epidermidis G-81, lincomycin 1× and 2× MIC (positive control), 24 h
Method: Samples were collected at intervals of 0, 0.5, 1, 2, 4, 6, 8, 10, 12, and 24 h, respectively, and subjected to 10-fold serial dilutions followed by colony counting. PBS and Lincomycin were used as negative and positive controls. […] The results were presented as means ± standard deviation (SD).

[18] = tested on: E. coli ATCC 25922; assay: MIC, microbroth dilution; type: cell-based; conditions: Escherichia coli, ATCC25922, 1 × 10^5 CFU/mL, 37 °C, 12–18 h, triplicate

Structure (SMILES): CC[C@H](C)[C@@H]1NC(=O)[C@H](CO)NC(=O)[C@H](CCCNC(=N)N)NC(=O)[C@@H]2CSSC[C@@H](C(=O)N[C@@H](Cc3ccc(O)cc3)C(=O)N[C@@H](CCCNC(=N)N)C(=O)N[C@@H](CO)C(=O)O)NC(=O)[C@H]([C@@H](C)O)NC(=O)[C@@H]3CSSC[C@H](NC(=O)[C@H](CCC(N)=O)NC(=O)[C@H](Cc4ccc(O)cc4)NC(=O)[C@H](CCCNC(=N)N)NC(=O)[C@H](CC(N)=O)NC(=O)[C@H](Cc4c[nH]c5ccccc45)NC(=O)[C@@H]4CCCN4C(=O)[C@@H](NC(=O)CNC(=O)[C@H](Cc4ccccc4)NC(=O)CN)CSSC[C@H](NC(=O)[C@H](Cc4ccc(O)cc4)NC(=O)CNC(=O)CNC(=O)[C@H](CC(C)C)NC(=O)[C@H](CCCNC(=N)N)NC(=O)CNC1=O)C(=O)N[C@@H](C)C(=O)NCC(=O)N[C@@H](CO)C(=O)N[C@@H](CC(C)C)C(=O)N[C@@H](CCCNC(=N)N)C(=O)N[C@@H](CC(C)C)C(=O)N[C@@H]([C@@H](C)O)C(=O)N3)C(=O)N[C@@H](Cc1c[nH]cn1)C(=O)N[C@@H](CO)C(=O)N[C@@H](Cc1c[nH]cn1)C(=O)N2 [AOD] (H-GFGCPWNRYQCHSHCRSIGRLGGYCAGSLRLTCTCYRS-OH; disulfide 4-25, 11-33, 15-35)
hemolysis rate [1]: less than 0.5% | MIC ([2]; microbroth dilution): 4 µg/mL (≈ 0.938 µM) | MIC ([3]; microbroth dilution): 4 µg/mL (≈ 0.938 µM) | heart indices [4]: elevated only in the AOD-treated group | antibacterial activity remaining after heating [5]: 20% | MIC values after treatment with trypsin [6]: remained unchanged | MIC values after treatment with pepsin [7]: remained unchanged | MIC [8]: 8 µg/mL (≈ 1.88 µM) | ion stability [9]: remarkable stability | MIC ([10]; microbroth dilution): 16 µg/mL (≈ 3.75 µM) | MIC ([11]; microbroth dilution): 16 µg/mL (≈ 3.75 µM) | MIC [12]: 8 µg/mL (≈ 1.88 µM) | MIC ([13]; microbroth dilution): 8 µg/mL (≈ 1.88 µM) | MIC [14]: 4 µg/mL (≈ 0.938 µM) | MIC [15]: 4 µg/mL (≈ 0.938 µM) | cell survival rate ([16]; 128 μg/mL): over 83% | cell survival rate ([16]; 128 mg/mL (so in the source)): 98%

MIC [18]: 2 µg/mL (≈ 4.92 µM) | MIC ([2]; Staphylococcus epidermidis, ATCC12228, microbroth dilution, read-out: MIC): 4 µg/mL (≈ 9.84 µM) | MIC ([3]; Staphylococcus epidermidis, G81, microbroth dilution, read-out: MIC): 4 µg/mL (≈ 9.84 µM) | MIC ([8]; read-out: MIC): 32 µg/mL (≈ 78.7 µM) | MIC ([10]; Staphylococcus hyicus, NCTC10350, microbroth dilution, read-out: MIC): 32 µg/mL (≈ 78.7 µM) | MIC ([11]; Staphylococcus aureus, ATCC25923, microbroth dilution, read-out: MIC): 1 µg/mL (≈ 2.46 µM) | MIC ([12]; Staphylococcus aureus, read-out: MIC): 1 µg/mL (≈ 2.46 µM) | MIC ([13]; Staphylococcus aureus, ATCC43300, microbroth dilution, read-out: MIC): > 64 µg/mL
Structure (SMILES): CCC[C@@H]1C[C@@H](C(=O)N[C@@H]([C@H]2O[C@H](SC)[C@H](O)[C@@H](O)[C@H]2O)[C@@H](C)O)N(C)C1 [Lincomycin, reference compound]
course of bacterial counts [17]: gradual decrease
